The molecules below were run against human OX2R (Homo sapiens (Human), UniProt O43614) (assay: IPOne (IP-One, Cisbio) orexin receptor agonist assay in CHO cells expressing human OX2R). Conditions: not given.
Sequence of human OX2R (O43614 whole entry): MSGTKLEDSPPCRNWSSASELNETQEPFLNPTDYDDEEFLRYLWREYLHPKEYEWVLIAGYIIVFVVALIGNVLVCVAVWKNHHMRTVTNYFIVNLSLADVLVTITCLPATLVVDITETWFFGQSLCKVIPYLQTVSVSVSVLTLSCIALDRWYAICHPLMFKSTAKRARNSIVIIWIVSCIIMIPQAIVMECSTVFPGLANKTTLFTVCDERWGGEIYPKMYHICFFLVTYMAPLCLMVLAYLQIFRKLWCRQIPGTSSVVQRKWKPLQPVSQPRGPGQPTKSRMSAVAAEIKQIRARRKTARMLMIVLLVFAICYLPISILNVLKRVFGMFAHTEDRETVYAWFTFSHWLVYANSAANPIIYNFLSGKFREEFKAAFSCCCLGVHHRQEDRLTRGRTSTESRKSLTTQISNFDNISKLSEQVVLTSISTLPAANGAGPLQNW

Point of comparison: `CNS(=O)(=O)N[C@H]1C[C@@H](C)N(C(=O)OC(C)C)[C@H]1COC1CCN(c2ncccn2)CC1` [Example 38, isopropyl (2R,3S,5R)-5-methyl-3-((N-methylsulfamoyl)amino)-2-(((1-(pyrimidin-2-yl)piperidin-4-yl)oxy)methyl)pyrrolidine-1-carboxylate], IC50 7.07 nM. Against it:
- COC(=O)N1[C@H](C)C[C@H](NS(C)(=O)=O)[C@@H]1COC1CCC(c2ccccc2)CC1OC (stereo partly drawn) [Example 33, methyl (2R,3S,5R)-2-(((2-methoxy-4-phenylcyclohexyl)oxy)methyl)-5-methyl-3-(methylsulfonamido)pyrrolidine-1-carboxylate] — 300-fold higher, 2150 nM
- COC(=O)N1[C@@H](CO[C@H]2CC[C@@H](c3ccccc3)CC2)[C@@H](NS(C)(=O)=O)CC12CC2 (relative stereo) [Example 41, methyl (CIS)-6-(methylsulfonamido)-5-((((CIS)-4-phenylcyclohexyl)oxy)methyl)-4-azaspiro[2.4]heptane-4-carboxylate] — 32-fold higher, 224 nM
- COC(=O)N1[C@H](C)C[C@H](NS(=O)(=O)N(C)C)[C@@H]1CO[C@H]1CCC(c2cccc(F)c2)C(O)C1 (stereo partly drawn) [Example 36, methyl (2R,3S,5R)-3-((N,N-dimethylsulfamoyl)amino)-2-((((1S)-4-(3-fluorophenyl)-3-hydroxycyclohexyl)oxy)methyl)-5-methylpyrrolidine-1-carboxylate] — 9.3-fold lower, 0.76 nM

Same assay, conditions: CHO, hOX2R_IP; percentage of mean max effect of a reference compound at 1 uM (100% activity vs Orexin A)

Point of comparison: `COC(=O)N1[C@H](C)C[C@H](NS(=O)(=O)CF)[C@@H]1COC1CCC(c2cccc(F)c2)CC1` (stereo partly drawn) [Example 62, methyl (2R,3S,5R)-3-((fluoromethyl)sulfona-mido)-2-((((1s,4S)-4-(3-fluorophenyl)cyclohex-yl)oxy)methyl)-5-methylpyrrolidine-1-carboxylate], Emax 98%. Against it:
- CC[C@@H]1C[C@H](NS(C)(=O)=O)[C@H](CO[C@H]2CC[C@@H](c3ccccc3)CC2)N1C(=O)OC [Example 46, methyl (2R,3S,5R)-5-ethyl-3-(methylsulfonamido)-2-((((CIS)-4-phenylcyclohexyl)oxy)methyl)pyrrolidine-1-carboxylate] — higher, 101%
- COC(=O)N1[C@H](C)C[C@H](NS(C)(=O)=O)[C@@H]1COC1CCC(c2ccccc2)CC1OC (stereo partly drawn) [Example 33, methyl (2R,3S,5R)-2-(((2-methoxy-4-phenylcyclohexyl)oxy)methyl)-5-methyl-3-(methylsulfonamido)pyrrolidine-1-carboxylate] — lower, 92%
- COC(=O)N1[C@H](C)C[C@H](NS(=O)(=O)CF)[C@@H]1CO[C@H]1CC[C@@H](c2cccc(F)c2)CC1 [Example 26, methyl (2R,3S,5R)-3-((fluoromethyl)sulfonamido)-2-((((1s,4S)-4-(3-fluorophenyl)cyclohexyl)oxy)methyl)-5-methylpyrrolidine-1-carboxylate] — the same, 98%
- CNS(=O)(=O)N[C@H]1C[C@@H](C)N(C(=O)OC(C)C)[C@H]1COC1CCN(c2ncccn2)CC1 [Example 38, isopropyl (2R,3S,5R)-5-methyl-3-((N-methylsulfamoyl)amino)-2-(((1-(pyrimidin-2-yl)piperidin-4-yl)oxy)methyl)pyrrolidine-1-carboxylate] — higher, 100%
- CC[C@@H]1C[C@H](NS(C)(=O)=O)[C@H](CO[C@H]2CC[C@@H](c3ccccc3)CC2)N1C(=O)OC (racemic) [Example 43, methyl (2R,3S,5R)-5-ethyl-3-(methylsulfonamido)-2-((((CIS)-4-phenylcyclohexyl)oxy)methyl)-pyrrolidine-1-carboxylate] — higher, 103%
- COC(=O)N1[C@H](C)C[C@H](NS(C)(=O)=O)[C@@H]1COC1CCC(C(C)C)CC1 (stereo partly drawn) [Example 3, methyl (2R,3S,5R)-2-(((4-isopropylcyclohexyl)oxy)methyl)-5-methyl-3-(methylsulfonamido)pyrrolidine-1-carboxylate] — the same, 98%
- COC(=O)N1C(C2CC2)C[C@H](NS(C)(=O)=O)C1COC1CCC(c2ccccc2)CC1 (stereo partly drawn) [Example 44, methyl (CIS)-5-cyclopropyl-3-(methylsulfonamido)-2-((((CIS)-4-phenylcyclohexyl)oxy)methyl)pyrrolidine-1-carboxylate] — higher, 101%
- COC(=O)N1[C@H](C)C[C@H](NS(=O)(=O)N(C)C)[C@@H]1COC1CCC(C(F)(F)F)CC1 (stereo partly drawn) [Example 11, methyl (2R,3S,5R)-3-((N,N-dimethylsulfamoyl)amino)-5-methyl-2-(((4-(trifluoromethyl)cyclohexyl)oxy)methyl)pyrrolidine-1-carboxylate] — higher, 99%
- COC(=O)N1[C@H](C)C[C@H](NS(C)(=O)=O)[C@@H]1CO[C@H]1CC[C@@H](c2cc(F)ccc2F)CC1 [Example 20, methyl (2R,3S,5R)-2-((((1r,4R)-4-(2,5-difluorophenyl)cyclo-hexyl)oxy)methyl)-5-methyl-3-(methylsulfona-mido)pyrrolidine-1-carboxylate] — higher, 102%
- COCCS(=O)(=O)N[C@H]1C[C@@H](C)N(C(=O)OC)[C@H]1COC1CCC(c2cccc(F)c2)CC1 (some centres unmarked) [Example 61] — higher, 105%
- COC(=O)N1[C@H](C)C[C@H](NS(=O)(=O)N(C)C)[C@@H]1CO[C@H]1CC[C@@H](c2ccccc2F)CC1 [Example 23, methyl (2R,3S,5R)-3-((N,N-dimethylsulfamoyl)amino)-2-((((1s,4S)-4-(2-fluorophenyl)cyclohexyl)oxy)methyl-5-methylpyrrolidine-1-carboxylate] — lower, 97%
- COC(=O)N1[C@H](C)C[C@H](NS(C)(=O)=O)[C@@H]1CO[C@H]1CC[C@@H](c2ccc(F)c(F)c2)CC1 [Example 73, Methyl (2R,3S,5R)-2-((((1s,4S)-4-(3,4-difluorophenyl)cyclohexyl)oxy)methyl)-5-methyl-3-(methylsulfonamido)pyrrolidine-1-carboxylate] — higher, 101%
- COC(=O)N1[C@@H](CO[C@H]2CC[C@@H](c3ccccc3)CC2)[C@@H](NS(C)(=O)=O)CC12CC2 (relative stereo) [Example 41, methyl (CIS)-6-(methylsulfonamido)-5-((((CIS)-4-phenylcyclohexyl)oxy)methyl)-4-azaspiro[2.4]heptane-4-carboxylate] — higher, 99%
- COC(=O)N1[C@H](C)C[C@H](NS(=O)(=O)N(C)C)[C@@H]1CO[C@H]1CCC(c2cccc(F)c2)C(O)C1 (stereo partly drawn) [Example 36, methyl (2R,3S,5R)-3-((N,N-dimethylsulfamoyl)amino)-2-((((1S)-4-(3-fluorophenyl)-3-hydroxycyclohexyl)oxy)methyl)-5-methylpyrrolidine-1-carboxylate] — higher, 99%
- COC(=O)N1[C@H](C)C[C@H](NS(=O)(=O)N(C)C)[C@@H]1CO[C@@H]1CC[C@H](c2cccc(F)c2)CC1F (stereo partly drawn) [Example 31, methyl (2R,3S,5R)-3-((N,N-dimethylsulfamoyl)amino)-2-((((1R,4S)-2-fluoro-4-(3-fluorophenyl)cyclohexyl)oxy)methyl)-5-methylpyrrolidine-1-carboxylate] — higher, 100%
- COC(=O)N1[C@H](C)C[C@H](NS(C)(=O)=O)[C@@H]1COC1CCC(CC(F)(F)F)CC1 (stereo partly drawn) [Example 12, methyl (2R,3S,5R)-5-methyl-3-(methylsulfonamido)-2-(((4-(2,2,2-trifluoroethyl)cyclohexyl)oxy)methyl)pyrrolidine-1-carboxylate] — higher, 99%

Same assay, conditions: hOX2R_IP; percentage of mean max effect of a reference compound at 1 uM (100% activity vs Orexin A)

Point of comparison: `COC(=O)N1[C@H](C)C[C@H](NS(C)(=O)=O)[C@@H]1CO[C@H]1CC[C@@H](C(C)C)CC1` [Example 4, methyl (2R,3S,5R)-2-((((1s,4S)-4-isopropylcyclohexyl)oxy)methyl)-5-methyl-3-(methylsulfonamido)pyrrolidine-1-carboxylate], “Emax (%)” value 102%. Against it:
- C=C[C@@H]1C[C@H](NS(C)(=O)=O)[C@H](CO[C@H]2CC[C@@H](c3ccccc3)CC2)N1C(=O)OC (relative stereo) [Example 48, methyl (CIS)-3-(methylsulfonamido)-2-((((CIS)-4-phenylcyclohexyl)oxy)methyl)-5-vinylpyrrolidine-1-carboxylate] — the same, 102%
- COC(=O)N1[C@H](C)C[C@H](NS(=O)(=O)CF)[C@@H]1CO[C@H]1CC[C@@H](c2cccc(F)c2)CC1 [Example 26, methyl (2R,3S,5R)-3-((fluoromethyl)sulfonamido)-2-((((1s,4S)-4-(3-fluorophenyl)cyclohexyl)oxy)methyl)-5-methylpyrrolidine-1-carboxylate] — the same, 102%
- COC(=O)N1[C@H](C)C[C@H](NS(=O)(=O)N(C)CC2CS(=O)(=O)C2)[C@@H]1CO[C@H]1CC[C@@H](c2cccc(F)c2)CC1 [Example 58, methyl (2R,3S,5R)-3-((N-((1,1-dioxidothietan-3-yl)methyl)-N-methylsulfamoyl)amino)-2-((((1s,4S)-4-(3-fluorophenyl)cyclohex-yl)oxy)methyl)-5-methylpyrrolidine-1-carboxylate] — lower, 101%
- COC(=O)N1[C@H](C)C[C@H](NS(C)(=O)=O)[C@@H]1CO[C@H]1CC[C@@H](c2ncccn2)CC1 [Example 70, Methyl (2R,3S,5R)-5-methyl-3-(methylsulfonamido)-2-((((1s,4S)-4-(pyrimidin-2-yl)cyclohexyl)oxy)methyl)pyrrolidine-1-carboxylate] — lower, 99%
- COC(=O)N1[C@H](C)C[C@H](NS(=O)(=O)N(C)C)[C@@H]1CO[C@H]1CC[C@H](c2ccc(C#N)c(C)c2)CC1 [Example 64, Methyl (2R,3S,5R)-2-((((1r,4R)-4-(4-cyano-3-methylphenyl)cyclohexyl)oxy)methyl)-3-((N,N-dimethylsulfamoyl)amino)-5-methylpyrrolidine-1-carboxylate] — lower, 99%
- COC(=O)N1[C@H](C)C[C@H](NS(C)(=O)=O)[C@@H]1CO[C@H]1CC[C@@H](c2ccccc2)CC1 [Example 15, methyl (2R,3S,5R)-5-methyl-3-(methylsulfonamido)-2-((((1s,4S)-4-phenylcyclohexyl)oxy)-methyl)pyrrolidine-1-carboxylate] — lower, 101%
- methyl (CIS)-5-ethynyl-3-(methylsulfonamido)-2-((((CIS)-4-phenylcyclohexyl)oxy)methyl)-pyrrolidine-1-carboxylate [Example 47] — lower, 101%
- COC(=O)N1[C@H](C)C[C@H](NS(=O)(=O)CC(F)F)[C@@H]1CO[C@H]1CC[C@@H](c2cccc(F)c2)CC1 [Example 60, Methyl (2R,3S,5R)-3-((2,2-difluoroethyl)sulfonamido)-2-((((1s,4S)-4-(3-fluorophenyl)-cyclohexyl)oxy)methyl)-5-methylpyrrolidine-1-carboxylate] — lower, 99%
- COC(=O)N1[C@H](C)C[C@H](NS(=O)(=O)N(C)C)[C@@H]1CO[C@H]1CC[C@@H](c2ccc(C#N)c(C)c2)CC1 [Example 63, Methyl (2R,3S,5R)-2-((((1s,4S)-4-(4-cyano-3-methylphenyl)cyclohexyl)oxy)methyl)-3-((N,N-dimethylsulfamoyl)amino)-5-methylpyrrolidine-1-carboxylate] — lower, 100%
- COC(=O)N1[C@H](C)C[C@H](NS(=O)(=O)N(C)CCOC(F)(F)F)[C@@H]1CO[C@H]1CC[C@@H](c2cccc(F)c2)CC1 [Example 59, methyl (2R,3S,5R)-2-((((1s,4S)-4-(3-fluorophenyl)cyclohex-yl)oxy)methyl)-5-methyl-3-((N-methyl-N-(2-(trifluoromethoxy)ethyl)sulfamoyl)amino)pyrro-lidine-1-carboxylate] — lower, 99%

Source: patent US11098029B2, “5-alkyl pyrrolidine orexin receptor agonists” (Merck Sharp & Dohme Corp., priority 2019, dated 2021)
